Test results as given in ChEMBL document CHEMBL6074636, “Design and activity evaluation of new EGFR tyrosine kinase inhibitors containing cyclic polyamines” (Bioorg Med Chem Lett, 2024).
Activity calls are given as the source filed them. The calls are words filed in the database; no cut-off is given here.

Assays:
[1] = tested on: PC-9; assay: Inhibition of cell migration in human PC-9 cells expressing EGFR del19/T790M/C797S triple mutant at 1 uM incubated for 48 hrs by transwell assay; format: functional, cell-based
[2] = tested on: NCI-H1975; assay: cells; format: functional, cell-based; details: Homo sapiens, NCI-H1975, 48 h
Description: Antiproliferative activity against human NCI-H1975 cells assessed as inhibition of cell growth incubated for 48 hrs by CCK assay

[3] = tested on: PC-9; assay: Inhibition of colony formation in human PC-9 cells expressing EGFR del19/T790M/C797S triple mutant at 1 uM; format: functional, cell-based
[4] = tested on: PC-9; assay: Antiproliferative activity against human PC-9 cells expressing EGFR del19/T790M/C797S triple mutant assessed as reduction in cell proliferation at 100 to 500 nM incubated for 48 hrs Edu staining based analysis; format: functional; details: dose 100-500 nM
[5] = molecular target: Epidermal growth factor receptor (Homo sapiens, UniProt P00533, EX19DEL); assay: Inhibition of EGFR del19 mutant (unknown origin)
Epidermal growth factor receptor (Homo sapiens, UniProt P00533, EX19DEL), sequence (P00533 whole entry, looked up, stated change not applied): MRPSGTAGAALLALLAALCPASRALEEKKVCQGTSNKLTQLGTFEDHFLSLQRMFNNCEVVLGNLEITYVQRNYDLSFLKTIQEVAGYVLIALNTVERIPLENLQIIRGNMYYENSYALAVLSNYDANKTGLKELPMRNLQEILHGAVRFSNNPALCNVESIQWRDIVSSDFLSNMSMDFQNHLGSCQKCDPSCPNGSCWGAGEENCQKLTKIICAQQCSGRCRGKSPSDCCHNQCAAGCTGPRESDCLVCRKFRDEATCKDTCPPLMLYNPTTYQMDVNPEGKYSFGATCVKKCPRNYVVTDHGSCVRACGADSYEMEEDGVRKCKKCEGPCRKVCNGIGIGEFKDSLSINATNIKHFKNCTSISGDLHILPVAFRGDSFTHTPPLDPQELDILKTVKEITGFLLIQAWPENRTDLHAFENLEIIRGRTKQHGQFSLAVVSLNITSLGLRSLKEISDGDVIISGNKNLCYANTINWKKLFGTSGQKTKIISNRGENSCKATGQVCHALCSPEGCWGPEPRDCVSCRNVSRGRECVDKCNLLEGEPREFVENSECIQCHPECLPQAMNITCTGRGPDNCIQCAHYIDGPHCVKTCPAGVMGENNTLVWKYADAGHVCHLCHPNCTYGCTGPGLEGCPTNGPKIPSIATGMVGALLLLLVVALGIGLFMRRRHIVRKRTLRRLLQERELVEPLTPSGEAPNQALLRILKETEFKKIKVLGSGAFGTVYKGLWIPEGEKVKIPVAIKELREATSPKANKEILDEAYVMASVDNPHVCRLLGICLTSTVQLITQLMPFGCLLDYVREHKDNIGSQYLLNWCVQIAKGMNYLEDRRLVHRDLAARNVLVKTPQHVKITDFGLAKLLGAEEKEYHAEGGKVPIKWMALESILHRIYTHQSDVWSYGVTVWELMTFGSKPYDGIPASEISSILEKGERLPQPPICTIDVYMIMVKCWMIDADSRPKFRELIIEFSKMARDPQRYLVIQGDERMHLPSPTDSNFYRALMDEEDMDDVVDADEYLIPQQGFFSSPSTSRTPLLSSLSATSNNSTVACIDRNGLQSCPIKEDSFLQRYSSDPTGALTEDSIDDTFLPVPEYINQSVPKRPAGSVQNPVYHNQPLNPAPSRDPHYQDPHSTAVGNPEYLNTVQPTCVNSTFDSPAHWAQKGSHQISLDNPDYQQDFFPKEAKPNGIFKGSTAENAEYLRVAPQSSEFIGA

[6] = tested on: A549; assay: cells; format: functional, cell-based; details: Homo sapiens, A549, 48 h
Description: Antiproliferative activity against human A549 cells expressing wild type EGFR assessed as inhibition of cell growth incubated for 48 hrs by CCK assay

[7] = molecular target: Epidermal growth factor receptor (Homo sapiens, UniProt P00533, C797S/L858R/T790M); assay: Inhibition of EGFR L858R/T790M/C797S triple mutant (unknown origin)
Epidermal growth factor receptor (Homo sapiens, UniProt P00533, C797S/L858R/T790M), sequence (P00533 25-1210 T790M/C797S/L858R limits assumed): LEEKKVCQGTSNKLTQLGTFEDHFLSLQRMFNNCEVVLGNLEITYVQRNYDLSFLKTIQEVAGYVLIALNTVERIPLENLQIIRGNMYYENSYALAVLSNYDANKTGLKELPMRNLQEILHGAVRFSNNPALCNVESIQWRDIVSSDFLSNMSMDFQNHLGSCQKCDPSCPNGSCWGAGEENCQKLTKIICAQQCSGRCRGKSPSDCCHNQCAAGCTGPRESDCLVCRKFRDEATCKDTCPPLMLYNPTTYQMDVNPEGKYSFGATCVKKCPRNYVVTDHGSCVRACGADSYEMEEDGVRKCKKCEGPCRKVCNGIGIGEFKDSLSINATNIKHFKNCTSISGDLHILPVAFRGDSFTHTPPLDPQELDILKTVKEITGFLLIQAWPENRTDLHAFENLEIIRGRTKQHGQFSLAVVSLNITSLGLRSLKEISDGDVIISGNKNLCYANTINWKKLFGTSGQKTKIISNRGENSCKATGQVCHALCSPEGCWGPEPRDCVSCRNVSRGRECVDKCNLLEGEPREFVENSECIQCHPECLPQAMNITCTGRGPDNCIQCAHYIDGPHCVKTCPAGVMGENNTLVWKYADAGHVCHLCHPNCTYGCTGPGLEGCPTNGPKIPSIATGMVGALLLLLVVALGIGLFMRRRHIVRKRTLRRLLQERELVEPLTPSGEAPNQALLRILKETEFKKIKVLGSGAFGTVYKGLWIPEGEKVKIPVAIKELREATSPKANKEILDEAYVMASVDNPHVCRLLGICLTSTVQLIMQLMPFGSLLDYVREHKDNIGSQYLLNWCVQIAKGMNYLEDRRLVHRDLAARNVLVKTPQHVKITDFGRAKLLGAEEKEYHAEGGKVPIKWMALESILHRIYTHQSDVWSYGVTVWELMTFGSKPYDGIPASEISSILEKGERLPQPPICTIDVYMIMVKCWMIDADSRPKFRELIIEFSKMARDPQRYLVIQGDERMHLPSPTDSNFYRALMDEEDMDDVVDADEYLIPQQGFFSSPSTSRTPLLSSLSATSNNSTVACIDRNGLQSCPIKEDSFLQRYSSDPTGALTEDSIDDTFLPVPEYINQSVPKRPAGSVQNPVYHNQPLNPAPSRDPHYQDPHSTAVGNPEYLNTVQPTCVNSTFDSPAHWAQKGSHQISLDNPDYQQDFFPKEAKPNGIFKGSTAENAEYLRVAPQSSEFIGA

[8] = tested on: PC-9; assay: cells; format: functional, cell-based; details: Homo sapiens, PC-9, 48 h
Description: Antiproliferative activity against human PC-9 cells assessed as inhibition of cell growth incubated for 48 hrs by CCK assay

[9] = Cytotoxicity against human BEAS-2B cells assessed as inhibition of cell growth incubated for 48 hrs by CCK-8 assay; format: toxicity, cell-based
[10] = tested on: PC-9; assay: Inhibition of colony formation in human PC-9 cells expressing EGFR del19/T790M/C797S triple mutant at 100 nM; format: functional, cell-based
[11] = Selectivity index, ratio of IC50 for cytotoxicity against human BEAS-2B cells assessed as inhibition of cell growth to IC50 for antiproliferative activity against human PC-9 cells expressing EGFR del19/T790M/C797S triple mutant assessed as inhibition of cell growth; format: toxicity, cell-based; details: read-out: Ratio IC50
[12] = tested on: PC-9; assay: cells; format: functional, cell-based; details: Homo sapiens, PC-9, 48 h; remark: listed apart in the source
Description: Antiproliferative activity against human PC-9 cells expressing EGFR del19/T790M/C797S triple mutant assessed as inhibition of cell growth incubated for 48 hrs by CCK assay

With `O=C(O)CN1CCN(CC(=O)O)CC(=O)Nc2cc3c(Nc4cccc(F)c4)ncnc3cc2NC(=O)C1` the inhibition [1] was “Active”, the IC50 [2] was 1.41 µM and the inhibition [3] was “Active”. For the same compound, the Activity [4] was “Active”, the IC50 [5] was 0.136 µM and the IC50 [6] was 0.946 µM. The IC50 [7] was 0.161 µM, the IC50 [8] was 1.13 µM and the IC50 at 48 h [9] was 17.2 µM. For the same compound, the inhibition [10] was “Active”, the selectivity ratio [11] was 34.7 and the IC50 [12] was 0.496 µM.
With `O=C(O)CN1CCN(CC(=O)O)CC(=O)Nc2cc3c(Nc4ccc(OCc5cccc(F)c5)c(Cl)c4)ncnc3cc2NC(=O)C1` the IC50 [2] was 2.49 µM, the IC50 [5] was 0.18 µM and the IC50 [6] was 4.02 µM. The IC50 [7] was 0.22 µM, the IC50 [8] was 6.57 µM and the IC50 [12] was 1.09 µM.
`CCc1cccc(Nc2ncnc3cc4c(cc23)NC(=O)CN(CC(=O)O)CCN(CC(=O)O)CC(=O)N4)c1` showed an IC50 [2] of 8.11 µM, an IC50 [5] of 0.378 µM and an IC50 [6] of over 100 µM. It also gave an IC50 [7] of 0.321 µM, an IC50 [8] of 10.2 µM and an IC50 [12] of 1.52 µM.
Compound `C=CC(=O)Nc1cc(Nc2nccc(-c3cn(C)c4ccccc34)n2)c(OC)cc1N(C)CCN(C)C` [OSIMERTINIB] has an IC50 [2] of […], an IC50 [6] of 0.637 µM and an IC50 [8] of 0.08 µM. It also gave an IC50 at 48 h [9] of 20.1 µM and an IC50 [12] of 0.912 µM.
For `CCc1cc(Br)ccc1Nc1ncnc2cc3c(cc12)NC(=O)CN(CC(=O)O)CCN(CC(=O)O)CC(=O)N3`, the IC50 [2] was 4.85 µM, the IC50 [6] was 3.32 µM and the IC50 [8] was 49.3 µM. The IC50 [12] was 3.43 µM.
Compound `O=C(O)CN1CCN(CC(=O)O)CC(=O)Nc2cc3c(Nc4ccc(Br)cc4F)ncnc3cc2NC(=O)C1` has an IC50 [2] of 3.44 µM, an IC50 [5] of 0.161 µM and an IC50 [6] of 7.78 µM. For the same compound, the IC50 [7] was 0.251 µM, the IC50 [8] was 2.7 µM and the IC50 [12] was 0.767 µM.
In the case of `O=C(O)CN1CCN(CC(=O)O)CC(=O)Nc2cc3c(Nc4ccccc4)ncnc3cc2NC(=O)C1`, the IC50 [2] is reported as 3.91 µM, the IC50 [6] is reported as 3.91 µM and the IC50 [8] is reported as 32.9 µM. The IC50 [12] was 14.2 µM.
With `O=C(O)CN1CCN(CC(=O)O)CC(=O)Nc2cc3c(Nc4cccc(Br)c4)ncnc3cc2NC(=O)C1` the IC50 [2] was 4.41 µM, the IC50 [6] was over 100 µM and the IC50 [8] was 31.6 µM. It also gave an IC50 [12] of 3.6 µM.
In the case of `O=C(O)CN1CCN(CC(=O)O)CC(=O)Nc2cc3c(Nc4ccc(Cl)cc4Cl)ncnc3cc2NC(=O)C1`, the IC50 [2] is reported as 4.54 µM, the IC50 [6] is reported as over 100 µM and the IC50 [8] is reported as 1.66 µM. It also gave an IC50 [12] of 11 µM.
In the case of `O=C1CNCCNCC(=O)Nc2cc3c(Nc4ccc(F)c(Cl)c4)ncnc3cc2N1`, the IC50 [2] is reported as 4.43 µM, the IC50 [5] is reported as over 1000 µM and the IC50 [6] is reported as 1.38 µM. It also gave an IC50 [7] of over 1000 µM, an IC50 [8] of 12.5 µM and an IC50 [12] of 4.61 µM.
In the case of `O=C(O)CN1CCN(CC(=O)O)CC(=O)Nc2cc3c(Nc4ccc(F)c(Cl)c4)ncnc3cc2NC(=O)C1`, the IC50 [2] is reported as 18.9 µM, the IC50 [6] is reported as over 100 µM and the IC50 [8] is reported as 7.87 µM. It also gave an IC50 [12] of 13.2 µM.
In the case of `O=C(O)CN1CCN(CC(=O)O)CC(=O)Nc2cc3c(Nc4cccc(Cl)c4)ncnc3cc2NC(=O)C1`, the IC50 [2] is reported as 23.3 µM, the IC50 [6] is reported as 2.26 µM and the IC50 [8] is reported as 30.7 µM. For the same compound, the IC50 [12] was 84 µM.
With `COc1cccc(Nc2ncnc3cc4c(cc23)NC(=O)CN(CC(=O)O)CCN(CC(=O)O)CC(=O)N4)c1` the IC50 [2] was 3.04 µM, the IC50 [6] was 35.1 µM and the IC50 [8] was 12.3 µM. It also gave an IC50 [12] of 6.7 µM.
`C#Cc1cccc(Nc2ncnc3cc4c(cc23)OCCOCCOCCO4)c1` [ICOTINIB] showed an IC50 [2] of 5.75 µM, an IC50 [6] of 56 µM and an IC50 [8] of 1.53 µM. It also gave an IC50 [12] of 1.26 µM.
